Measured values from ChEMBL document CHEMBL5604063, “ASAP - DENV-2 NS2B-NS3 protease fluorescence dose response” (2024).
“And” between values parts separate entries of the source, which are not always exact repeats. Identical values can stand only once.

Experiments:
[1] = molecular target: T1, Genome polyprotein (dengue virus type 2, UniProt P29990); format: functional, Thailand/16681/1984
[2] = molecular target: T1, Genome polyprotein; format: functional, Thailand/16681/1984; remark: listed apart in the source

T1 sequence (P29990 1346-1475 limits assumed): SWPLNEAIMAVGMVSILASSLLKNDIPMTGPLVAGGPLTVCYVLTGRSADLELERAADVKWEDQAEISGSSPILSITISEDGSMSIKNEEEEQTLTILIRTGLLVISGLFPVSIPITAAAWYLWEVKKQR
T1 sequence (P29990 1476-2093 limits assumed): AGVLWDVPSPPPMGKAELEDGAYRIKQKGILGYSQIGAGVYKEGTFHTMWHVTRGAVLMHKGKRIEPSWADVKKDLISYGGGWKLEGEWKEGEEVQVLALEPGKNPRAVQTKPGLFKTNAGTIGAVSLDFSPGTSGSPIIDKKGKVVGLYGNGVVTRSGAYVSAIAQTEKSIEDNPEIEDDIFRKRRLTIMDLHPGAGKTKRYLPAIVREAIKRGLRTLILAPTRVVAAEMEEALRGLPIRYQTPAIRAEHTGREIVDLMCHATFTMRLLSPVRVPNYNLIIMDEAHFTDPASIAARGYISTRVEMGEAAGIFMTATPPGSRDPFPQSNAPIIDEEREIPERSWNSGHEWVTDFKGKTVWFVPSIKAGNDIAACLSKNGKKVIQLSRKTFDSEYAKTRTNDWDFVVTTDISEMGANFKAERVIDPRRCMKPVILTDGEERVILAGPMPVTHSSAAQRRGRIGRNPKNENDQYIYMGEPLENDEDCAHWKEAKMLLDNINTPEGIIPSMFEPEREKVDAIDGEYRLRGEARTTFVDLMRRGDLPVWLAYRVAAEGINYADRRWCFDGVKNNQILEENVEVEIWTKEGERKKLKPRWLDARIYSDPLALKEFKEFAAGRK

Compound | IC50 [1] | IC50 [2]
NCc1cccc(NC(=O)c2cc(C3CC3)nc3ccc(Cl)cc23)c1 | > 99.5 µM | > 100 µM
O=C(Nc1cc(Cl)cc(C(=O)Nc2ccnc([C@H]3CCCN3)n2)c1)OCc1ccccc1 | > 99.5 µM | > 100 µM
NCc1cccc([C@H]2C[C@@H]2c2cc(Cl)cc(NC(=O)OCc3ccccc3)c2)c1 | 41 µM and 25.9 µM and 30 µM | > 100 µM
CS(=O)(=O)N(c1cc(Cl)cc(C(=O)Nc2cccc(CN)c2)c1)S(C)(=O)=O | > 99.5 µM | > 100 µM
Cc1cc(CN)cc(C)c1NS(=O)(=O)c1ccc(Oc2ccccc2Cl)cc1 | > 99.5 µM | > 100 µM
NC1(c2cccc(NS(=O)(=O)c3ccc(Oc4ccccc4Cl)cc3)c2)CCOCC1 | > 99.5 µM | > 100 µM
CCc1c(C(=O)Nc2cccc(CN)c2)c2cc(Cl)ccc2n1C | > 99.5 µM | > 100 µM
O=c1ccc(N2CCN(Cc3c[nH]c4ccccc34)CC2)c[nH]1 | > 99.5 µM | > 100 µM
COc1cn(-c2cccc(C(F)(F)F)c2)nc1C(=O)Nc1cccc(CN)c1 | > 99.5 µM | > 100 µM
CCOc1cccc(-c2ccc(S(=O)(=O)Nc3ccc(Cl)cc3C(=O)O)cc2C)c1 | 7.15 µM | 7.34 µM
NC1CN(c2ccc(NS(=O)(=O)c3ccc(Oc4ccccc4Cl)cc3)cn2)C1 | > 99.5 µM | > 100 µM
NCc1cccc(NC(=O)[C@H](NC(=O)OCc2ccccc2)c2cccc(-c3ccnc(N)c3)c2)c1 | > 99.5 µM | > 100 µM
Cc1cc(C(=O)Nc2cccc(CN)c2)n2nc(C(F)(F)F)cc2n1 | 86.7 µM | > 100 µM
CC(C)(C)OC(=O)NCc1cccc(NC(=O)C[C@H](N)c2ccc(OCc3ccccc3)c(Br)c2)c1 | > 99.5 µM | > 100 µM
N[C@H]1CCCc2ccc(NC(=O)c3cc(Cl)cc(NC(=O)OCc4ccccc4)c3)cc21 | > 99.5 µM | > 100 µM
NC1(c2cccc(NC(=O)c3cc(Cl)cc(NC(=O)OCc4ccccc4)c3)c2)CCOCC1 | > 99.5 µM | > 100 µM
Cc1ccc(OCc2ccccc2Cl)c(C(=O)Nc2cccc(CN)c2)c1 | 99.5 µM | > 100 µM
CS(=O)(=O)Nc1cc(Cl)cc(C(=O)Nc2cccc(CN)c2)c1 | > 99.5 µM | > 100 µM
CCc1cc(NC(=O)OCc2ccccc2)cc(C(=O)Nc2cccc(CN)c2)c1 | > 99.5 µM | > 100 µM
NCc1cccc(NC(=O)c2cc(CO)cc(NC(=O)OCc3ccccc3)c2)c1 | > 99.5 µM | > 100 µM
NCc1cc(Cl)cc(C(=O)Nc2cccc(C3CCNCC3)c2)c1 | > 99.5 µM | > 100 µM
COc1ccc(-c2cccc([C@H](NC(=O)OCc3ccccc3)C(=O)Nc3cccc(CN)c3)c2)c(C#N)c1 | 56.5 µM | > 100 µM
NCc1cccc(NC(=O)[C@H](NC(=O)OCc2ccccc2)c2cccc(-c3ccccn3)c2)c1 | > 99.5 µM | > 100 µM

Compound | IC50 [1] | IC50 [2]
NCc1cccc(NC(=O)[C@H]2CCc3nnc(-c4ccc(F)cc4)n3C2)c1 | > 99.5 µM | > 100 µM
CC(C)(CNCc1c[nH]c2ccccc12)c1cccnc1 | > 99.5 µM | > 100 µM
NCc1cccc(NC(=O)c2cc(Cl)cc(NC(=O)NCc3ccccc3)c2)c1 | > 99.5 µM | > 100 µM
CCCN(C)C(=O)Cn1ccnc(N2CC[C@H](CO)C2)c1=O | > 99.5 µM | > 100 µM
O=C(Nc1cc(Cl)cc(C(=O)Nc2nc([C@H]3CCCN3)cc(=O)[nH]2)c1)OCc1ccccc1 | 86.9 µM | > 100 µM
CCc1onc(-c2ccc(Br)cc2)c1C(=O)Nc1cccc(CN)c1 | > 99.5 µM | > 100 µM
O=C(Nc1cc(Cl)cc(C(=O)Nc2cccc([C@H]3CCCN3)c2)c1)OCc1ccccc1 | 95.3 µM | > 100 µM
NCc1cccc(NC(=O)[C@@H]2C[C@@H](O)CN2C(=O)C23CC4CC(CC(C4)C2)C3)c1 | > 99.5 µM | > 100 µM
NCc1cccc(NC(=O)c2cc3c(F)cc(F)c(F)c3[nH]2)c1 | > 99.5 µM | > 100 µM
NCc1cccc(NC(=O)[C@H](NC(=O)OCc2ccccc2)c2cccc(-c3ccc4c(c3)CC(=O)N4)c2)c1 | 16.2 µM and 7.19 µM | > 100 µM
NCc1ccc(NS(=O)(=O)c2ccc(Oc3ccccc3Cl)cc2)cc1Cl | > 99.5 µM | > 100 µM
N[C@H](CO)c1cccc(NC(=O)c2cc(Cl)cc(NC(=O)OCc3ccccc3)c2)c1 | > 99.5 µM | > 100 µM
Cc1c(F)cc(C(=O)Nc2cccc(CN)c2)c(F)c1NC(=O)OCc1ccccc1 | 69.8 µM | 100 µM
NC1CN(c2ncccc2NS(=O)(=O)c2ccc(Oc3ccccc3Cl)cc2)C1 | > 99.5 µM | > 100 µM
NC1(c2cccc(NC(=O)c3cc(Cl)cc(NC(=O)OCc4ccccc4)c3)c2)CC1 | > 99.5 µM | > 100 µM
NC(=O)c1cccc(NC(=O)c2cc(Cl)cc(NC(=O)OCc3ccccc3)c2)c1 | > 99.5 µM | > 100 µM
CCc1cc(C(=O)Nc2cccc(CN)c2)sc1-c1ccc(Cl)cc1 | 19.7 µM and 24.8 µM | > 100 µM
C=C(C)c1cc(NC(=O)OCc2ccccc2)cc(C(=O)Nc2cccc(CN)c2)c1 | 50.4 µM | > 100 µM
O=C(Cn1ccnc(N2CC[C@H](CO)C2)c1=O)NCc1cc[nH]n1 | > 99.5 µM | > 100 µM
O=C(Cn1ccnc(N2CC[C@H](CO)C2)c1=O)N1CCOCC1 | > 99.5 µM | > 100 µM
NC1(c2cc(C(F)(F)F)ccc2NS(=O)(=O)c2ccc(Oc3ccccc3Cl)cc2)CC1 | > 99.5 µM | > 100 µM
NCc1cccc(NC(=O)[C@H](NC(=O)OCc2ccccc2)c2ccc(OCc3ccccc3)c(Br)c2)c1 | 30.4 µM | > 100 µM
NCc1cccc(NC(=O)c2nn(-c3ccccc3F)cc2Br)c1 | > 99.5 µM | > 100 µM

Compound | IC50 [1] | IC50 [2]
O=C(Nc1cc(Cl)cc(C(=O)Nc2cccc([C@H]3CNCCO3)c2)c1)OCc1ccccc1 | > 99.5 µM | > 100 µM
NCCc1cccc(NC(=O)[C@H]2[C@H]3CCCCC[C@H]3[C@H]2NC(=O)OCc2ccccc2)c1 | 8.41 µM and 7.22 µM | 12.1 µM
NCc1cccc(CCc2cc(Cl)cc(NC(=O)OCc3ccccc3)c2)c1 | 34.8 µM | > 100 µM
NCCOc1ccnc(NS(=O)(=O)c2ccc(Oc3ccccc3Cl)cc2)c1 | > 99.5 µM | > 100 µM
NCc1cccc(NC(=O)C[C@H](CC(N)=O)c2ccc(F)cc2)c1 | > 99.5 µM | > 100 µM
N[C@H]1CCc2ccc(NC(=O)c3cc(Cl)cc(NC(=O)OCc4ccccc4)c3)cc21 | 91.2 µM | > 100 µM
CS(=O)(=O)Nc1c(Cl)cc(Cl)cc1C(=O)Nc1cccc(CN)c1 | > 99.5 µM | > 100 µM
Cc1cc(CN)cc(NS(=O)(=O)c2ccc(Oc3ccccc3Cl)cc2)c1 | > 99.5 µM | > 100 µM
NCc1cccc(NC(=O)c2ccnc3[nH]c(C4CCOCC4)nc23)c1 | > 99.5 µM | > 100 µM
NCc1cccc(NC(=O)c2cc(Br)cnc2OCC2CC2)c1 | > 99.5 µM | > 100 µM
COc1ccc(COc2ccc([C@H](NC(=O)OCc3ccccc3)C(=O)Nc3cccc(CN)c3)cc2)cn1 | > 99.5 µM | > 100 µM
NC1(c2ccccc2NS(=O)(=O)c2ccc(Oc3ccccc3Cl)cc2)CC1 | > 99.5 µM | > 100 µM
NCc1cccc(NC(=O)[C@H](NC(=O)OCc2ccccc2)c2ccc(OCC3CCC3)cc2)c1 | 48.8 µM | > 100 µM
OC[C@H](Cc1cccnc1)NCc1c[nH]c2ccccc12 | > 99.5 µM | > 100 µM
CC(C)c1nc2c(C(=O)Nc3cccc(CN)c3)cccc2[nH]1 | > 99.5 µM | > 100 µM
Cc1ccc(-n2nc(C(=O)Nc3cccc(CN)c3)ccc2=O)cc1Cl | > 99.5 µM | > 100 µM
COc1cc(C(=O)Nc2cccc(CN)c2)cc(NC(=O)OCc2ccccc2)c1Cl | > 99.5 µM | > 100 µM
NC1(c2cccc(NS(=O)(=O)c3ccc(Oc4ccccc4Cl)cc3)c2)CCC1 | > 99.5 µM | > 100 µM
NCc1cccnc1NS(=O)(=O)c1ccc(Oc2ccccc2Cl)cc1 | > 99.5 µM | > 100 µM
N[C@H]1CCOc2ccc(NC(=O)c3cc(Cl)cc(NC(=O)OCc4ccccc4)c3)cc21 | > 99.5 µM | > 100 µM
O=C(O)C[C@H](NC(=O)OCc1ccccc1)c1ccc(OCc2ccccc2)c(Br)c1 | 59.8 µM | 45.6 µM
